Experimental data: the NIST ThermoML archive (doi:10.1021/je060271a)
“And” between values parts separate entries of the source, which are not always exact repeats. Identical values can stand only once.

Conditions: Liquid, Vibrating tube method

CCCCCCC(=O)OCC(COC(=O)CCCCCC)(COC(=O)CCCCCC)COC(=O)CCCCCC [pentaerythritol tetraheptanoate]
Conditions	mass density
343.15 K, 32525 kPa	962.8 kg/m3
343.15 K, 32544 kPa	962.9 kg/m3
343.15 K, 32576 kPa	962.8 kg/m3
343.15 K, 32608 kPa	962.8 kg/m3
343.15 K, 32640 kPa	962.9 kg/m3
343.15 K, 32679 kPa	962.8 kg/m3
343.15 K, 32711 kPa	963 kg/m3
343.15 K, 32736 kPa	963 kg/m3
343.15 K, 32750 kPa	963.1 kg/m3
343.15 K, 32774 kPa	963.1 kg/m3
343.15 K, 32782 kPa	963 kg/m3
343.15 K, 32814 kPa	963.1 kg/m3
343.15 K, 32815 kPa	963 kg/m3
343.15 K, 32853 kPa	963.1 kg/m3
343.15 K, 32854 kPa	962.9 kg/m3
343.15 K, 32887 kPa	962.9 kg/m3
343.15 K, 32900 kPa	963.1 kg/m3
343.15 K, 32920 kPa	963.1 kg/m3
343.15 K, 32940 kPa	963 kg/m3
343.15 K, 32953 kPa	963.1 kg/m3
343.15 K, 32980 kPa	963 kg/m3
343.15 K, 32993 kPa	963.1 kg/m3
343.15 K, 33027 kPa	963.1 kg/m3
343.15 K, 33028 kPa	963.2 kg/m3
343.15 K, 33060 kPa	963.1 kg/m3
343.15 K, 33068 kPa	963.1 kg/m3
343.15 K, 33100 kPa	963.1 kg/m3
343.15 K, 33109 kPa	963.1 kg/m3
343.15 K, 33134 kPa	963.3 kg/m3
343.15 K, 33174 kPa	963.3 kg/m3
343.15 K, 33208 kPa	963.4 kg/m3
343.15 K, 33242 kPa	963.2 kg/m3
343.15 K, 33276 kPa	963.3 kg/m3
343.15 K, 33317 kPa	963.3 kg/m3
343.15 K, 33351 kPa	963.3 kg/m3
343.15 K, 33385 kPa	963.4 kg/m3
343.15 K, 33425 kPa	963.3 kg/m3
343.15 K, 33459 kPa	963.4 kg/m3
343.15 K, 33500 kPa	963.3 kg/m3
343.15 K, 33535 kPa	963.4 kg/m3
343.15 K, 33569 kPa	963.4 kg/m3
343.15 K, 33604 kPa	963.4 kg/m3
343.15 K, 33645 kPa	963.5 kg/m3
343.15 K, 33679 kPa	963.4 kg/m3
343.15 K, 33714 kPa	963.4 kg/m3
343.15 K, 33721 kPa	963.6 kg/m3
343.15 K, 33756 kPa	963.6 kg/m3
343.15 K, 33772 kPa	963.8 kg/m3
343.15 K, 33791 kPa	963.6 kg/m3
343.15 K, 33816 kPa	963.7 kg/m3
343.15 K, 33833 kPa	963.5 kg/m3
343.15 K, 33862 kPa	963.6 kg/m3
343.15 K, 33869 kPa	963.6 kg/m3
343.15 K, 33906 kPa	963.5 kg/m3
343.15 K, 33942 kPa	963.6 kg/m3
343.15 K, 33949 kPa	963.7 kg/m3
343.15 K, 33986 kPa	963.7 kg/m3
343.15 K, 34002 kPa	963.7 kg/m3
343.15 K, 34024 kPa	963.7 kg/m3
343.15 K, 34048 kPa	963.7 kg/m3
343.15 K, 34062 kPa	963.7 kg/m3
343.15 K, 34095 kPa	963.8 kg/m3
343.15 K, 34108 kPa	963.8 kg/m3
343.15 K, 34139 kPa	963.8 kg/m3
343.15 K, 34152 kPa	963.8 kg/m3
343.15 K, 34166 kPa	963.8 kg/m3
343.15 K, 34187 kPa	963.8 kg/m3
343.15 K, 34202 kPa	963.9 kg/m3
343.15 K, 34208 kPa	964 kg/m3
343.15 K, 34229 kPa	963.8 kg/m3
343.15 K, 34254 kPa	963.7 kg/m3
343.15 K, 34259 kPa	963.9 kg/m3
343.15 K, 34276 kPa	963.7 kg/m3
343.15 K, 34290 kPa	964 kg/m3
343.15 K, 34314 kPa	964 kg/m3
343.15 K, 34315 kPa	963.9 kg/m3
343.15 K, 34342 kPa	964 kg/m3
343.15 K, 34365 kPa	963.9 kg/m3 and 964.1 kg/m3
343.15 K, 34390 kPa	964 kg/m3
343.15 K, 34409 kPa	963.8 kg/m3
343.15 K, 34414 kPa	964.1 kg/m3
343.15 K, 34444 kPa	964 kg/m3
343.15 K, 34469 kPa	963.9 kg/m3
343.15 K, 34483 kPa	964 kg/m3
343.15 K, 34500 kPa	964 kg/m3
343.15 K, 34527 kPa	964.1 kg/m3
343.15 K, 34534 kPa	964.1 kg/m3
343.15 K, 34556 kPa	964 kg/m3
343.15 K, 34566 kPa	964.1 kg/m3
343.15 K, 34584 kPa	964.1 kg/m3
343.15 K, 34616 kPa	964.2 kg/m3
343.15 K, 34624 kPa	964.2 kg/m3
343.15 K, 34625 kPa	964.2 kg/m3
343.15 K, 34651 kPa	964.1 kg/m3
343.15 K, 34654 kPa	964.2 kg/m3
343.15 K, 34656 kPa	964.2 kg/m3
343.15 K, 34659 kPa	964.1 kg/m3
343.16 K, 100.2 kPa	940.6 kg/m3
343.16 K, 100.5 kPa	940.7 kg/m3 and 940.6 kg/m3
343.16 K, 100.7 kPa	940.6 kg/m3 and 940.7 kg/m3
343.16 K, 101 kPa	940.7 kg/m3
343.16 K, 101.7 kPa	940.6 kg/m3
343.16 K, 103.8 kPa	940.6 kg/m3
343.16 K, 104.7 kPa	940.6 kg/m3
343.16 K, 160.8 kPa	940.8 kg/m3
343.16 K, 221.5 kPa	940.6 kg/m3
343.16 K, 300.9 kPa	940.7 kg/m3
343.16 K, 1395.6 kPa	941.7 kg/m3
343.16 K, 1419.9 kPa	941.7 kg/m3
343.16 K, 4555 kPa	944.1 kg/m3
343.16 K, 5039.3 kPa	944.4 kg/m3
343.16 K, 13687 kPa	950.5 kg/m3
